Laboratory results published in patent US20110028566A1, “COMPOSITIONS AND PRODUCTS CONTAINING CYCLOALIPHATIC DIOL ANTIMICROBIAL AGENTS AND METHODS OF USING THE COMPOSITIONS AND PRODUCTS” (EASTMAN CHEMICAL COMPANY, priority 2009, published 2011).

Columns and labels:
Assay in all cases: Microbial challenge testing in BPW
Format in all cases: cell-based
Pseudomonas aeruginosa = system: Pseudomonas aeruginosa
Experimental: (§1) The microorganisms used in challenge tests are given in Table 3, designated as either ATCC (American Type Culture Collection) or wild type. These wild type organisms were problematic organisms previously isolated from chemical products. In the description for each organism, the bacteria are indicated as either GN (Gram negative) or GP (Gram positive).
(§2) All of the microorganisms were grown in Tryptose Soy Broth (TSB), DIFCO™ available from Becton, Dickinson and Company, containing 1% dextrose. Aspergillus niger and Candida albicans were incubated at 22° C.±2° C. for at least 96 hours. All bacteria were incubated at 35° C.±2° C. in a humidified incubator for at least 96 hours.
(§3) The following procedure was followed to determine the amount of each challenge material (inoculum broth) required to produce a 10^8 cfu/mL challenge, which is equivalent to a final test-sample microbial concentration of 10^5 to 10^6 cfu (colony-forming units)/mL.
(§4) Using a sterile serological pipette, 1 mL of the growth from each TSB culture was transferred into tubes containing 9 mL phosphate buffer (pH 7.2) and mixed thoroughly. This process was repeated to make serial 1:10 dilutions. Then 0.1 mL of each sample and dilution was inoculated onto agar plates to produce the equivalent of a further 1:10 dilution. C. albicans and A. niger were inoculated onto SDA and bacteria were inoculated onto Plate Count Agar (PCA), DIFCO™ available from Becton, Dickinson and Company. The 0.1 mL aliquots were evenly distributed on the plates using the spread-plate technique. The spread-plate technique is performed by spreading the aliquot over the entire plate surface using a sterile spreading rod while rotating the plate with a rotary auto-plater. After the inoculum was absorbed completely, each plate was inverted and incubated (fungi at 22° C.±2° C. and bacteria at 35° C.±2° C.).
(§5) After incubation for at least 48 hours, colonies that had developed on the agar plates were counted and recorded with the corresponding dilution. If counting had to be delayed temporarily, plates were refrigerated, preferably no more than 24 hours, until they could be counted. The number of cfu/mL was determined by multiplying the count by the dilution factor for that particular plate.
(§6) Turbidity in Nepholemetric Turbidity Units (NTU) was measured for each serial dilution using the HF-Micro 100 Model Turbidimeter. For each microorganism, the plate counts were compared to the turbidity readings.
(§7) Control substrates (“broth alone”) were prepared for each microorganism separately in triplicate by adding 13.5 mL of BPW (pH 7.0) containing 1% (w/v) dextrose to each 20-mL glass tube; then adding 1.5 mL challenge material to produce a final concentration at time zero of 10^5 to 10^6 cfu/mL and a total volume of 15 mL.
(§8) Test sample substrates were prepared containing each test material (1,4-CHDM, etc) or combination of test materials at the concentrations shown in Tables 5 and 6. Sample substrates were prepared in triplicate, except those substrates containing PE or CG which were prepared in duplicate. Substrates were prepared by adding BPW containing 1% (w/v) dextrose to each 20-mL glass tube, then adding the test material in the amount appropriate to achieve the desired weight/volume percent (g/100 mL) and to obtain a total volume of BPW with dextrose and test material of 13.5 mL. Then 1.5 mL challenge material was added to produce a final concentration at time zero of 10^5 to 10^6 cfu/mL of the respective organism and a total test sample substrate volume of 15 mL.
(§9) After mixing, all challenged substrates were incubated at 35° C.±2° C. for 14 days and then at ambient room temperature.

Aeromonas sp. = system: Aeromonas sp.
Experimental: as §1, §2, §3, §4, §5, §6, §7, §8, §9

Streptococcus mutans = system: Streptococcus mutans
Experimental: as §1, §2, §3, §4, §5, §6, §7, §8, §9

Proteus vulgaris = system: Proteus vulgaris
Experimental: as §1, §2, §3, §4, §5, §6, §7, §8, §9

Aspergillus niger = system: Aspergillus niger
Experimental: as §1, §2
(§10) Aspergillus niger and Candida albicans were also grown on Sabouraud dextrose agar (SDA) at 22° C.±2° C. for 7 to 14 days or until full sporulation was achieved.
as §3, §4, §5, §6
Aspergillus niger cultures were harvested and spores dislodged from the SDA on which they were grown by rubbing the growth gently with a sterile inoculating loop. The spores were then mixed into the broth culture that had been incubated with a sterile magnetic stir bar to reduce pellicle formation. The spore-culture mixture was filtered repeatedly through sterile, non-absorbent cotton and harvested repeatedly, adjusting vegetative cells and spores to a level of 1.0×10^8. A hemocytometer was used to verify the final challenge concentration.
as §7
(§11) Test sample substrates were prepared containing each test material (1,4-CHDM, etc) or combination of test materials at the concentrations shown in Tables 5 and 6.

Candida albicans = system: Candida albicans
Experimental: as §1, §2, §10, §3, §4, §5, §6
On the day of challenge, the Candida albicans inoculum broth was poured through non-absorbent sterile gauze and centrifuged. The […] was then diluted with phosphate buffer (pH 7.2) until the desired turbidity was reached. Using a hemocytometer, a determination was made whether the challenge contained the desired concentration. Dilutions were made through 1.0×10^8 and three SDA spread plates were inoculated with 0.1 mL of each dilution.
as §7, §11

SMILES: OCC1CCCC(CO)C1 (centres unmarked) [1,3-CHDM]
- Grade code P. aeruginosa (Pseudomonas aeruginosa; 0.5%, 13 days incubation): 5 (More than 10,000 colonies estimated (thus >100,000 cfu/mL))
- Grade code P. aeruginosa (Pseudomonas aeruginosa; 0.5%, 30 days incubation): 5 (More than 10,000 colonies estimated (thus >100,000 cfu/mL))
- Grade code P. aeruginosa (Pseudomonas aeruginosa; 1.25%, 3 days incubation): 4 (1001 to 10,000 colonies (thus 10,000 cfu/mL to 100,000 cfu/mL))
- Grade code P. aeruginosa (Pseudomonas aeruginosa; 1.25%, 13 days incubation): 4 (1001 to 10,000 colonies (thus 10,000 cfu/mL to 100,000 cfu/mL))
- Grade code P. aeruginosa (Pseudomonas aeruginosa; 1.25%, 30 days incubation): 4 (1001 to 10,000 colonies (thus 10,000 cfu/mL to 100,000 cfu/mL))
- Grade code P. aeruginosa (Pseudomonas aeruginosa; 2.5%, 3 days incubation): 4 (1001 to 10,000 colonies (thus 10,000 cfu/mL to 100,000 cfu/mL))
- Grade code P. aeruginosa (Pseudomonas aeruginosa; 2.5%, 13 days incubation): 4 (1001 to 10,000 colonies (thus 10,000 cfu/mL to 100,000 cfu/mL))
- Grade code P. aeruginosa (Pseudomonas aeruginosa; 2.5%, 30 days incubation): 4 (1001 to 10,000 colonies (thus 10,000 cfu/mL to 100,000 cfu/mL))
- Grade code Aeromonas sp (Aeromonas sp.; 0.5%, 3 days incubation): 5 (More than 10,000 colonies estimated (thus >100,000 cfu/mL))
- Grade code Aeromonas sp (Aeromonas sp.; 0.5%, 14 days incubation): 4 (1001 to 10,000 colonies (thus 10,000 cfu/mL to 100,000 cfu/mL))
- Grade code Aeromonas sp (Aeromonas sp.; 0.5%, 30 days incubation): 4 (1001 to 10,000 colonies (thus 10,000 cfu/mL to 100,000 cfu/mL))
- Grade code Aeromonas sp (Aeromonas sp.; 1.25%, 3 days incubation): 4 (1001 to 10,000 colonies (thus 10,000 cfu/mL to 100,000 cfu/mL))
- Grade code Aeromonas sp (Aeromonas sp.; 1.25%, 14 days incubation): 4 (1001 to 10,000 colonies (thus 10,000 cfu/mL to 100,000 cfu/mL))
- Grade code Aeromonas sp (Aeromonas sp.; 1.25%, 30 days incubation): 4 (1001 to 10,000 colonies (thus 10,000 cfu/mL to 100,000 cfu/mL))
- Grade code S. mutans (Streptococcus mutans; 0.5%, 3 days incubation): 5 (More than 10,000 colonies estimated (thus >100,000 cfu/mL))
- Grade code S. mutans (Streptococcus mutans; 0.5%, 13 days incubation): 4 (1001 to 10,000 colonies (thus 10,000 cfu/mL to 100,000 cfu/mL))
- Grade code S. mutans (Streptococcus mutans; 0.5%, 30 days incubation): 4 (1001 to 10,000 colonies (thus 10,000 cfu/mL to 100,000 cfu/mL))
- Grade code S. mutans (Streptococcus mutans; 1.25%, 3 days incubation): 4 (1001 to 10,000 colonies (thus 10,000 cfu/mL to 100,000 cfu/mL))
- Grade code S. mutans (Streptococcus mutans; 1.25%, 13 days incubation): 4 (1001 to 10,000 colonies (thus 10,000 cfu/mL to 100,000 cfu/mL))
- Grade code S. mutans (Streptococcus mutans; 1.25%, 30 days incubation): 4 (1001 to 10,000 colonies (thus 10,000 cfu/mL to 100,000 cfu/mL))
- Grade code S. mutans (Streptococcus mutans; 2.5%, 3 days incubation): 4 (1001 to 10,000 colonies (thus 10,000 cfu/mL to 100,000 cfu/mL))
- Grade code S. mutans (Streptococcus mutans; 2.5%, 13 days incubation): 4 (1001 to 10,000 colonies (thus 10,000 cfu/mL to 100,000 cfu/mL))
- Grade code S. mutans (Streptococcus mutans; 2.5%, 30 days incubation): 4 (1001 to 10,000 colonies (thus 10,000 cfu/mL to 100,000 cfu/mL))
- Grade code P. vulqaris (Proteus vulgaris; 0.5%, 3 days incubation): 5 (More than 10,000 colonies estimated (thus >100,000 cfu/mL))
- Grade code P. vulqaris (Proteus vulgaris; 0.5%, 13 days incubation): 5 (More than 10,000 colonies estimated (thus >100,000 cfu/mL))
- Grade code P. vulqaris (Proteus vulgaris; 0.5%, 30 days incubation): 5 (More than 10,000 colonies estimated (thus >100,000 cfu/mL))
- Grade code P. vulqaris (Proteus vulgaris; 1.25%, 3 days incubation): 5 (More than 10,000 colonies estimated (thus >100,000 cfu/mL))
- Grade code P. vulqaris (Proteus vulgaris; 1.25%, 13 days incubation): 4 (1001 to 10,000 colonies (thus 10,000 cfu/mL to 100,000 cfu/mL))
- Grade code P. vulqaris (Proteus vulgaris; 1.25%, 30 days incubation): 4 (1001 to 10,000 colonies (thus 10,000 cfu/mL to 100,000 cfu/mL))
- Grade code A. niger (Aspergillus niger; 0.5%, 3 days incubation): 5
- Grade code A. niger (Aspergillus niger; 0.5%, 13 days incubation): 5
- Grade code A. niger (Aspergillus niger; 0.5%, 30 days incubation): 5
- Grade code A. niger (Aspergillus niger; 1.25%, 3 days incubation): 5
- Grade code A. niger (Aspergillus niger; 1.25%, 13 days incubation): 4
- Grade code A. niger (Aspergillus niger; 1.25%, 30 days incubation): 4
- Grade code A. niger (Aspergillus niger; 2.5%, 3 days incubation): 4
- Grade code A. niger (Aspergillus niger; 2.5%, 13 days incubation): 4
- Grade code A. niger (Aspergillus niger; 2.5%, 30 days incubation): 4
- Grade code C. albicans (Candida albicans; 0.5%, 3 days incubation): 4 (1001 to 10,000 colonies (thus 10,000 cfu/mL to 100,000 cfu/mL))
- Grade code C. albicans (Candida albicans; 0.5%, 14 days incubation): 4 (1001 to 10,000 colonies (thus 10,000 cfu/mL to 100,000 cfu/mL))
- Grade code C. albicans (Candida albicans; 0.5%, 30 days incubation): 4 (1001 to 10,000 colonies (thus 10,000 cfu/mL to 100,000 cfu/mL))
- Grade code C. albicans (Candida albicans; 1.25%, 3 days incubation): 4 (1001 to 10,000 colonies (thus 10,000 cfu/mL to 100,000 cfu/mL))
- Grade code C. albicans (Candida albicans; 1.25%, 14 days incubation): 4 (1001 to 10,000 colonies (thus 10,000 cfu/mL to 100,000 cfu/mL))
- Grade code C. albicans (Candida albicans; 1.25%, 30 days incubation): 4 (1001 to 10,000 colonies (thus 10,000 cfu/mL to 100,000 cfu/mL))
- Grade code C. albicans (Candida albicans; 2.5%, 3 days incubation): 4 (1001 to 10,000 colonies (thus 10,000 cfu/mL to 100,000 cfu/mL))
- Grade code C. albicans (Candida albicans; 2.5%, 14 days incubation): 4 (1001 to 10,000 colonies (thus 10,000 cfu/mL to 100,000 cfu/mL))
- Grade code C. albicans (Candida albicans; 2.5%, 30 days incubation): 4 (1001 to 10,000 colonies (thus 10,000 cfu/mL to 100,000 cfu/mL))
